# From the kinase profiling compilation of Christmann-Franck et al. (2016)
# Legend:
# Test in all cases: KINOMEscan competition binding
# Settings in all cases: compound 2.0 µM
# [1] = tested on: ABL1 (human), P00519 [Y253F]
# ABL2 (human) = ABL2 (human) (UniProt P42684)
# BMPR1A (human) = BMPR1A (human) (UniProt P36894)
# BMX (human) = BMX (human) (UniProt P51813)
# BTK (human) = BTK (human) (UniProt Q06187)
# CAMK2D (human) = CAMK2D (human) (UniProt Q13557)
# CDK15 (human) = CDK15 (human) (UniProt Q96Q40)
# CDK17 (human) = CDK17 (human) (UniProt Q00537)
# CSNK1G3 (human) = CSNK1G3 (human) (UniProt Q9Y6M4)
# CSNK2A1 (human) = CSNK2A1 (human) (UniProt P68400)
# DAPK2 (human) = DAPK2 (human) (UniProt Q9UIK4)
# DYRK1B (human) = DYRK1B (human) (UniProt Q9Y463)
# [2] = tested on: EGFR (human), P00533 [L861Q]
# EPHA2 (human) = EPHA2 (human) (UniProt P29317)
# EPHA5 (human) = EPHA5 (human) (UniProt P54756)
# EPHB4 (human) = EPHB4 (human) (UniProt P54760)
# FES (human) = FES (human) (UniProt P07332)
# FGFR1 (human) = FGFR1 (human) (UniProt P11362)
# IRAK1 (human) = IRAK1 (human) (UniProt P51617)
# IRAK3 (human) = IRAK3 (human) (UniProt Q9Y616)
# [3] = biological target: JAK3 JH1 catalytic (human) (UniProt P52333)
# MAP2K7 (human) = MAP2K7 (human) (UniProt O14733)
# MAP3K10 (human) = MAP3K10 (human) (UniProt Q02779)
# MAP3K6 (human) = MAP3K6 (human) (UniProt O95382)
# MAPK12 (human) = MAPK12 (human) (UniProt P53778)
# MAPK4 (human) = MAPK4 (human) (UniProt P31152)
# MERTK (human) = MERTK (human) (UniProt Q12866)
# MINK1 (human) = MINK1 (human) (UniProt Q8N4C8)
# MTOR (human) = MTOR (human) (UniProt P42345)
# NEK2 (human) = NEK2 (human) (UniProt P51955)
# NEK6 (human) = NEK6 (human) (UniProt Q9HC98)
# PAK6 (human) = PAK6 (human) (UniProt Q9NQU5)
# [4] = tested on: PIK3CA (human), P42336 [H1047Y]
# [5] = tested on: PIK3CA (human), P42336 [I800L]
# PRKCE (human) = PRKCE (human) (UniProt Q02156)
# PRKCH (human) = PRKCH (human) (UniProt P24723)
# RIOK2 (human) = RIOK2 (human) (UniProt Q9BVS4)
# RIOK3 (human) = RIOK3 (human) (UniProt O14730)
# ROCK1 (human) = ROCK1 (human) (UniProt Q13464)
# RPS6KA4 KD1 (human) = RPS6KA4 KD1 (human) (UniProt O75676)
# SBK1 (human) = SBK1 (human) (UniProt Q52WX2)
# STK10 (human) = STK10 (human) (UniProt O94804)
# STK36 (human) = STK36 (human) (UniProt Q9NRP7)
# Sequence of PIK3CA (human), P42336 [H1047Y] (P42336 whole entry H1047Y, looked up): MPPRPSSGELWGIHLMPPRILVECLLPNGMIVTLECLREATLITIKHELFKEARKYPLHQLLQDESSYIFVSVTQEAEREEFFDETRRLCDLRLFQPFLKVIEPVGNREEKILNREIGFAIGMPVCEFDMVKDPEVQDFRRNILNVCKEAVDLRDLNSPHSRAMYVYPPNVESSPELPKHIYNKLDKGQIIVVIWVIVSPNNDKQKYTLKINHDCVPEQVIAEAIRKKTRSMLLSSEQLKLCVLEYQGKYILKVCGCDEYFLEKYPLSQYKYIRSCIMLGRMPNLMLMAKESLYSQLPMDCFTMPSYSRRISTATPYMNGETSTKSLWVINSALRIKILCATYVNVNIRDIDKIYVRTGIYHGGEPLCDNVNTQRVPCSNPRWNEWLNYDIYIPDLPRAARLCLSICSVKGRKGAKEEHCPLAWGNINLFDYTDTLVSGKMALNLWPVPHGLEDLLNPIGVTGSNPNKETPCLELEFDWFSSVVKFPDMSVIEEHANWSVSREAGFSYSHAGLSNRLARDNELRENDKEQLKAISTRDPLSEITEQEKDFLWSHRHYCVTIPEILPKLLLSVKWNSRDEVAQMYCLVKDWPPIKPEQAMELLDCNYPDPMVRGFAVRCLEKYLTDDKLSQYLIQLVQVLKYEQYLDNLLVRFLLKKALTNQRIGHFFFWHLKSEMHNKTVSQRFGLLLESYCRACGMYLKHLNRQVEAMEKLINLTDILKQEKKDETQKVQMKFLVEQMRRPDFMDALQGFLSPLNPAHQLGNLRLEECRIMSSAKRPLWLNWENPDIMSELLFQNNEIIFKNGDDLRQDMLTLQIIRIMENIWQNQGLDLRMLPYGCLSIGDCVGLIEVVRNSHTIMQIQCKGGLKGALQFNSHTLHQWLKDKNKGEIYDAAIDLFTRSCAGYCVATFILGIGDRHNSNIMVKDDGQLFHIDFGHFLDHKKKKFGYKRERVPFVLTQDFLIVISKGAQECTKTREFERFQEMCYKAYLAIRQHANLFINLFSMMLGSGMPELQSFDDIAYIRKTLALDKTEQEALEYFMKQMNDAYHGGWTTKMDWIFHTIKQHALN
# Sequence of PRKCE (human) (Q02156 whole entry, looked up): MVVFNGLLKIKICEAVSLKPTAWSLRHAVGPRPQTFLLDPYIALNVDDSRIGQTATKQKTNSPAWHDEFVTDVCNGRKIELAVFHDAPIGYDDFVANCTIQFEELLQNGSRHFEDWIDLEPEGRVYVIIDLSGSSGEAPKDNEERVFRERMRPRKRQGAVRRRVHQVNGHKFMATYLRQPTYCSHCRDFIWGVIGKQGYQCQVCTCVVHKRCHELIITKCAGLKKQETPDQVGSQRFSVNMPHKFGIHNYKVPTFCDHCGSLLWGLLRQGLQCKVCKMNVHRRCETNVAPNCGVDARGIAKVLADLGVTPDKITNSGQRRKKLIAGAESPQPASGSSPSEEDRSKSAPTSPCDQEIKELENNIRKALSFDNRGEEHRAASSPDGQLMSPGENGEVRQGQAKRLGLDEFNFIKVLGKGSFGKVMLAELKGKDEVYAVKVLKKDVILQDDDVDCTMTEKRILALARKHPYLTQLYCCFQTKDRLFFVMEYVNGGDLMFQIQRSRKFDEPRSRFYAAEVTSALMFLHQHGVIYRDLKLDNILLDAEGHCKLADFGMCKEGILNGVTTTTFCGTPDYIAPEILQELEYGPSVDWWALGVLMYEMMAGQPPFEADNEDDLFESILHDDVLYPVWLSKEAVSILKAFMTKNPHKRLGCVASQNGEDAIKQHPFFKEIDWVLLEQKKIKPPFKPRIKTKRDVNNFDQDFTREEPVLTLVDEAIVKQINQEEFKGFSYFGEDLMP
# Sequence of RIOK3 (human) (O14730 whole entry, looked up): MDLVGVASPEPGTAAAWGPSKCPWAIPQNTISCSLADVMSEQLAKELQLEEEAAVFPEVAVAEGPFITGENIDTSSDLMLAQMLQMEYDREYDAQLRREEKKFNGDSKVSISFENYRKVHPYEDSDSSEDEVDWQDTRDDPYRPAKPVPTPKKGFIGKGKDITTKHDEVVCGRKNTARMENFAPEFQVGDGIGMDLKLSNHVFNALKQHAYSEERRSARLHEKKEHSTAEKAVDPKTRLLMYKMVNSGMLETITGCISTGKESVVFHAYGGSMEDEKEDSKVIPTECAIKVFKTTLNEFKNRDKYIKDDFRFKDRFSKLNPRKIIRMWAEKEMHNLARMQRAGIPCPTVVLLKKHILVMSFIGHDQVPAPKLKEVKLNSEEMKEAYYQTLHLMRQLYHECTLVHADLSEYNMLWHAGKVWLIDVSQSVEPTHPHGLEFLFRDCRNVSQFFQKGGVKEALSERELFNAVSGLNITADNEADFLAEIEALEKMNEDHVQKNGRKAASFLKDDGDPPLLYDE
# Sequence of EPHA5 (human) (P54756 whole entry, looked up): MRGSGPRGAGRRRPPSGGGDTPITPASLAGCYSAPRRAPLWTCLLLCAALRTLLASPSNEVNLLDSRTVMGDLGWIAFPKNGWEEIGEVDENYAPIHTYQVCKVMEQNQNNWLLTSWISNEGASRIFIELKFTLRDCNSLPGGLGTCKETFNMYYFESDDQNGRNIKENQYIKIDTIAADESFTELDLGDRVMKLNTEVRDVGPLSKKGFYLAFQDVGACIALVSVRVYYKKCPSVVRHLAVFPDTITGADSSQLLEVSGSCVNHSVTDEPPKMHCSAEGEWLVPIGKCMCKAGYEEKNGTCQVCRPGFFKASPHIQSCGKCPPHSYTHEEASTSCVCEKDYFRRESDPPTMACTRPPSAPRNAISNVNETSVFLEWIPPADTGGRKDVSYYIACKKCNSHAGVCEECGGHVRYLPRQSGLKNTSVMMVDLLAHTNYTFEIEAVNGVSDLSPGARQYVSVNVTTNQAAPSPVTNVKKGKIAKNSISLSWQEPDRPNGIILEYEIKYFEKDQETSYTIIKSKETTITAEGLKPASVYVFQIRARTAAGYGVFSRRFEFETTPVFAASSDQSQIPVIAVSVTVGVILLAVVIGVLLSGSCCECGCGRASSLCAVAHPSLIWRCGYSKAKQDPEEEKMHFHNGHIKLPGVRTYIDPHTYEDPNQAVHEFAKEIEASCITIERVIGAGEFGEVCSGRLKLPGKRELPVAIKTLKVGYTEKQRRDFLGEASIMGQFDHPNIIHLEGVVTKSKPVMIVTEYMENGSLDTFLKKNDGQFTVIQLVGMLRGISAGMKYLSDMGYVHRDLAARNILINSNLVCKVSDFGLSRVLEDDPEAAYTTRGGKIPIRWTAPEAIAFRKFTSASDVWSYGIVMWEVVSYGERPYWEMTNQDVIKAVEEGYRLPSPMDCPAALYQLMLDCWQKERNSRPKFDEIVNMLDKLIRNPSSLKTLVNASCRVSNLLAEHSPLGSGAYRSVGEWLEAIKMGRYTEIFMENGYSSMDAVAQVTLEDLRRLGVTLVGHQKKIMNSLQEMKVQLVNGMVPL
# Sequence of CAMK2D (human) (Q13557 whole entry, looked up): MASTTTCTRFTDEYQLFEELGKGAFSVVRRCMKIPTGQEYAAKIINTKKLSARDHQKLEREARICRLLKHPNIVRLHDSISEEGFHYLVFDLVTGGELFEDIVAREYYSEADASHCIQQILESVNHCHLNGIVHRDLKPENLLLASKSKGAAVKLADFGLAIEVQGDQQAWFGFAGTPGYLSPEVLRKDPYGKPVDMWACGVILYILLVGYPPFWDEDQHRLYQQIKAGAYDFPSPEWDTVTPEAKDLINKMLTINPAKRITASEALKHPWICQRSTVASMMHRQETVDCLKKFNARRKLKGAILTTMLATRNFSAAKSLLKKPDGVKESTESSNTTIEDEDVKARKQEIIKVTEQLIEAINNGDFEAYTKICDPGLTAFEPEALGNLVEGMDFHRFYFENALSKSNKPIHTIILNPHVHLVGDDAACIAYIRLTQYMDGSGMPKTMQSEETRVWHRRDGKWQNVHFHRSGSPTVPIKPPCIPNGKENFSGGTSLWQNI
# Sequence of CSNK1G3 (human) (Q9Y6M4 whole entry, looked up): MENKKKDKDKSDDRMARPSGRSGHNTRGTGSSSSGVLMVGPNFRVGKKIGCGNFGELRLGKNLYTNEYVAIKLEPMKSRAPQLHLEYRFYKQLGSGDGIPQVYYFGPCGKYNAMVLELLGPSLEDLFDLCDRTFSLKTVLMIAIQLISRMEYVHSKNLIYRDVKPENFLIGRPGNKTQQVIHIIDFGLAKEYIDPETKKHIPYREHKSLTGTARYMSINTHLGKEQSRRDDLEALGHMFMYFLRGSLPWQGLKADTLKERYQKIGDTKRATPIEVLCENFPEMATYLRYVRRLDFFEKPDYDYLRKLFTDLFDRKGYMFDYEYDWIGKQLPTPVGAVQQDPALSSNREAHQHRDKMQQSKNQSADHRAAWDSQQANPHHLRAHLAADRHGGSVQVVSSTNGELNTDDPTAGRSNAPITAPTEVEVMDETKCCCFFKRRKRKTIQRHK
# Sequence of SBK1 (human) (Q52WX2 whole entry, looked up): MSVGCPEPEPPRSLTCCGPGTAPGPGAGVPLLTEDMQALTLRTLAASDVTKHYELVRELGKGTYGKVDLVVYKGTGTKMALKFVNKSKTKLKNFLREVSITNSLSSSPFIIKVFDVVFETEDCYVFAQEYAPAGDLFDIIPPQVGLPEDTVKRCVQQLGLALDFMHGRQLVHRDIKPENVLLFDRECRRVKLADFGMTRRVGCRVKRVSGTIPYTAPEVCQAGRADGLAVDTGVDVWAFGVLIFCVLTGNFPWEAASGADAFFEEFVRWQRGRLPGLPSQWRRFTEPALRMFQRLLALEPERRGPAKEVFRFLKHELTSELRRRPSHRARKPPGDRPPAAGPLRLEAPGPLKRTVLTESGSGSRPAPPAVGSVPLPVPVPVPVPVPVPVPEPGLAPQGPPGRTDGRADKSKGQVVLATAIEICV
# Sequence of PIK3CA (human), P42336 [I800L] (P42336 whole entry I800L, looked up): as the sequence (P42336 whole entry H1047Y, looked up) above, with I800L, Y1047H counted along it
compound,measurement,setting,value
N#Cc1ccc2ncnc(NCCc3ccc4ccccc4c3)c2c1,"kinase still bound, per cent of control",[1],100%
same,"kinase still bound, per cent of control",ABL2 (human),99%
same,"kinase still bound, per cent of control",BMPR1A (human),100%
same,"kinase still bound, per cent of control",BMX (human),97%
same,"kinase still bound, per cent of control",BTK (human),86%
same,"kinase still bound, per cent of control",CAMK2D (human),100%
same,"kinase still bound, per cent of control",CDK15 (human),100%
same,"kinase still bound, per cent of control",CDK17 (human),90%
same,"kinase still bound, per cent of control",CSNK1G3 (human),81%
same,"kinase still bound, per cent of control",CSNK2A1 (human),92%
same,"kinase still bound, per cent of control",DAPK2 (human),87%
same,"kinase still bound, per cent of control",DYRK1B (human),96%
same,"kinase still bound, per cent of control",[2],60%
same,"kinase still bound, per cent of control",EPHA2 (human),100%
same,"kinase still bound, per cent of control",EPHA5 (human),100%
same,"kinase still bound, per cent of control",EPHB4 (human),100%
same,"kinase still bound, per cent of control",FES (human),100%
same,"kinase still bound, per cent of control",FGFR1 (human),92%
same,"kinase still bound, per cent of control",IRAK1 (human),98%
same,"kinase still bound, per cent of control",IRAK3 (human),82%
same,"kinase still bound, per cent of control",[3],100%
same,"kinase still bound, per cent of control",MAP2K7 (human),94%
same,"kinase still bound, per cent of control",MAP3K10 (human),100%
same,"kinase still bound, per cent of control",MAP3K6 (human),100%
same,"kinase still bound, per cent of control",MAPK12 (human),100%
same,"kinase still bound, per cent of control",MAPK4 (human),87%
same,"kinase still bound, per cent of control",MERTK (human),93%
same,"kinase still bound, per cent of control",MINK1 (human),100%
same,"kinase still bound, per cent of control",MTOR (human),80%
same,"kinase still bound, per cent of control",NEK2 (human),100%
same,"kinase still bound, per cent of control",NEK6 (human),96%
same,"kinase still bound, per cent of control",PAK6 (human),80%
same,"kinase still bound, per cent of control",[4],78%
same,"kinase still bound, per cent of control",[5],85%
same,"kinase still bound, per cent of control",PRKCE (human),100%
same,"kinase still bound, per cent of control",PRKCH (human),100%
same,"kinase still bound, per cent of control",RIOK2 (human),94%
same,"kinase still bound, per cent of control",RIOK3 (human),100%
same,"kinase still bound, per cent of control",ROCK1 (human),100%
same,"kinase still bound, per cent of control",RPS6KA4 KD1 (human),83%
same,"kinase still bound, per cent of control",SBK1 (human),100%
same,"kinase still bound, per cent of control",STK10 (human),67%
same,"kinase still bound, per cent of control",STK36 (human),100%
